Reference: patent US20130165368A1, “ANTIMICROBIAL COMPOUNDS” (priority 2010, published 2013)

System: MRSA NCTC 11939
Assay: Synergy testing: disc susceptibility, zone of inhibition on agar containing Laureth derivative
Type: cell-based, Staphylococcus aureus
Method: There now follows data relating to a screen for synergistic interaction between Laureth derivatives [C12E1 to C12E8] and 12 conventional anti-staphylococcal agents.
Ethoxylated Lauryl Alcohol Derivative Preparation As plates containing quarter strength of the MIC of NCTC 11939 are needed, and therefore very small weights of each compound, they were prepared at twenty time strength in 20 mL volumes in plastic universals. Once prepared these solutions were diluted […] by adding 1 mL to 1 mL SDW, resulting a 2 mL volume at ten times strength. This was undertaken in duplicate to create two identical plates.
IST was prepared as previously stated in above. 18 mL agar was added to each universal and then poured into sterile Petri dishes. Control plates were prepared as stated above
A 0.5 McFarland suspension of MRSA NCTC 11939 was prepared using SDW. This was then adjusted to a concentration of 1.5×107 by adding 200 μL to 1.8 mL of SDW. Once diluted, a sterile cotton swab was used to spread the suspension evenly across the entire surface of each agar plate.
Twelve antibiotics discs were added to the plates, 6 per plate in a circle. The plates were then incubated aerobically at 37° C.
The diameter of the zones of clearance were measured and recorded in millimetres. The zones for each compound were compared to the control and to BSAC breakpoints.
A variation of zone size within 2 mm is within acceptable limits of assay reproducibility.

[1] = antibiotic disc in the presence of L1 [C12E1] 0.005 mmol/L
[2] = antibiotic disc in the presence of L2 [C12E2] 0.0275 mmol/L
[3] = antibiotic disc in the presence of L3 [C12E3] 0.01375 mmol/L
[4] = antibiotic disc in the presence of L4 [C12E4] 0.0275 mmol/L
[5] = antibiotic disc in the presence of L5 [C12E5] 0.0275 mmol/L
[6] = antibiotic disc in the presence of L6 [C12E6] 0.0275 mmol/L
[7] = antibiotic disc in the presence of L7 [C12E7] 0.0275 mmol/L
[8] = antibiotic disc in the presence of L8 [C12E8] 0.055 mmol/L
[9] = antibiotic disc, Control, 0 mmol/L Laureth derivative

Compound	Zone of Inhibition [1]	Zone of Inhibition [2]	Zone of Inhibition [3]	Zone of Inhibition [4]	Zone of Inhibition [5]	Zone of Inhibition [6]	Zone of Inhibition [7]	Zone of Inhibition [8]	Zone of Inhibition [9]
O=C(N[C@H](CO)[C@H](O)c1ccc([N+](=O)[O-])cc1)C(Cl)Cl [Chloramphenicol]	22 mm	22 mm	24 mm	23 mm	25 mm	23 mm	22 mm	23 mm	
CCC[C@@H]1C[C@@H](C(=O)N[C@@H]([C@H]2O[C@H](SC)[C@H](O)[C@@H](O)[C@H]2O)[C@H](C)Cl)N(C)C1 [Clindamycin]	33 mm	32 mm	32 mm	34 mm	33 mm	33 mm	34 mm	35 mm	
CC[C@H]1OC(=O)[C@H](C)[C@@H](O[C@H]2C[C@@](C)(OC)[C@@H](O)[C@H](C)O2)[C@H](C)[C@@H](O[C@@H]2O[C@H](C)C[C@H](N(C)C)[C@H]2O)[C@](C)(O)C[C@@H](C)C(=O)[C@H](C)[C@@H](O)[C@]1(C)O [Erythromycin]	7 mm	7 mm	7 mm	8 mm	7 mm	7 mm	7 mm	8 mm	
CC(=O)O[C@H]1C[C@@]2(C)[C@@H](C[C@@H](O)[C@H]3[C@@]4(C)CC[C@@H](O)[C@@H](C)[C@@H]4CC[C@@]32C)/C1=C(\CCC=C(C)C)C(=O)O [Fusidic Acid]	36 mm	37 mm	35 mm	38 mm	37 mm	39 mm	37 mm		
COc1c(N2C[C@@H]3CCCN[C@@H]3C2)c(F)cc2c(=O)c(C(=O)O)cn(C3CC3)c12 [Moxyfloxacin]	14 mm	14 mm	16 mm	14 mm	13 mm	14 mm	18 mm		15 mm
C/C(=C\C(=O)OCCCCCCCCC(=O)O)C[C@@H]1OC[C@H](C[C@@H]2O[C@H]2[C@@H](C)[C@H](C)O)[C@@H](O)[C@H]1O [Muprocin]	32 mm	33 mm	32 mm	34 mm	32 mm	33 mm	34 mm	35 mm	33 mm
CO[C@H]1/C=C/O[C@@]2(C)Oc3c(C)c(O)c4c(O)c(c(/C=N/N5CCN(C)CC5)c(O)c4c3C2=O)NC(=O)/C(C)=C\C=C\[C@H](C)[C@H](O)[C@@H](C)[C@@H](O)[C@@H](C)[C@H](OC(C)=O)[C@@H]1C [Rifampicin]	37 mm	37 mm	37 mm	40 mm	39 mm	40 mm	39 mm		
CN(C)[C@@H]1C(O)=C(C(N)=O)C(=O)[C@@]2(O)C(O)=C3C(=O)c4c(O)cccc4[C@@](C)(O)[C@H]3C[C@@H]12 [Tetracycline]	34 mm	35 mm	35 mm	36 mm	32 mm	35 mm	36 mm		
COc1cc(Cc2cnc(N)nc2N)cc(OC)c1OC [Trimethoprim]	29 mm	30 mm	28 mm	31 mm	30 mm	31 mm	30 mm		
CN[C@H](CC(C)C)C(=O)N[C@H]1C(=O)N[C@@H](CC(N)=O)C(=O)N[C@H]2C(=O)N[C@H]3C(=O)N[C@H](C(=O)N[C@H](C(=O)O)c4cc(O)cc(O)c4-c4cc3ccc4O)[C@H](O)c3ccc(c(Cl)c3)Oc3cc2cc(c3O[C@@H]2O[C@H](CO)[C@@H](O)[C@H](O)[C@H]2O[C@H]2C[C@](C)(N)[C@H](O)[C@H](C)O2)Oc2ccc(cc2Cl)[C@H]1O [Vancomycin]	21 mm	21 mm	19 mm	21 mm	20 mm	20 mm	20 mm	23 mm	
Gentamicin	27 mm	27 mm	27 mm	29 mm	28 mm	30 mm	30 mm	33 mm	28 mm
